{
  "source": "paper PMC10657792",
  "about": "“Downstream Allosteric Modulation of NMDA Receptors by 3-Benzazepine Derivatives” (Molecular Neurobiology, 2023)",
  "key": {"[1]": {"tested_on": "GluN2B subunits", "details": "cited from earlier work"}, "[2]": {"tested_on": "GluN2B", "design": "method as in PMID 35710735", "details": "PET, non-human primates; cited from earlier work"}, "[3]": {"biological_target": "GluN1a wt/ GluN2B F114A (Rattus norvegicus, UniProt P35439+Q00960, F114A)", "assay": "TEVC recording in X. laevis oocytes, GluN2B mutant screening", "format": "cell-based", "details": "GluN1-1a/F114A, individual oocytes"}, "[4]": {"biological_target": "GluN1a wt/ GluN2B E236A (Rattus norvegicus, UniProt P35439+Q00960, E236A)", "sequence (Q00960 27-1482 E236A, other chains not shown)": "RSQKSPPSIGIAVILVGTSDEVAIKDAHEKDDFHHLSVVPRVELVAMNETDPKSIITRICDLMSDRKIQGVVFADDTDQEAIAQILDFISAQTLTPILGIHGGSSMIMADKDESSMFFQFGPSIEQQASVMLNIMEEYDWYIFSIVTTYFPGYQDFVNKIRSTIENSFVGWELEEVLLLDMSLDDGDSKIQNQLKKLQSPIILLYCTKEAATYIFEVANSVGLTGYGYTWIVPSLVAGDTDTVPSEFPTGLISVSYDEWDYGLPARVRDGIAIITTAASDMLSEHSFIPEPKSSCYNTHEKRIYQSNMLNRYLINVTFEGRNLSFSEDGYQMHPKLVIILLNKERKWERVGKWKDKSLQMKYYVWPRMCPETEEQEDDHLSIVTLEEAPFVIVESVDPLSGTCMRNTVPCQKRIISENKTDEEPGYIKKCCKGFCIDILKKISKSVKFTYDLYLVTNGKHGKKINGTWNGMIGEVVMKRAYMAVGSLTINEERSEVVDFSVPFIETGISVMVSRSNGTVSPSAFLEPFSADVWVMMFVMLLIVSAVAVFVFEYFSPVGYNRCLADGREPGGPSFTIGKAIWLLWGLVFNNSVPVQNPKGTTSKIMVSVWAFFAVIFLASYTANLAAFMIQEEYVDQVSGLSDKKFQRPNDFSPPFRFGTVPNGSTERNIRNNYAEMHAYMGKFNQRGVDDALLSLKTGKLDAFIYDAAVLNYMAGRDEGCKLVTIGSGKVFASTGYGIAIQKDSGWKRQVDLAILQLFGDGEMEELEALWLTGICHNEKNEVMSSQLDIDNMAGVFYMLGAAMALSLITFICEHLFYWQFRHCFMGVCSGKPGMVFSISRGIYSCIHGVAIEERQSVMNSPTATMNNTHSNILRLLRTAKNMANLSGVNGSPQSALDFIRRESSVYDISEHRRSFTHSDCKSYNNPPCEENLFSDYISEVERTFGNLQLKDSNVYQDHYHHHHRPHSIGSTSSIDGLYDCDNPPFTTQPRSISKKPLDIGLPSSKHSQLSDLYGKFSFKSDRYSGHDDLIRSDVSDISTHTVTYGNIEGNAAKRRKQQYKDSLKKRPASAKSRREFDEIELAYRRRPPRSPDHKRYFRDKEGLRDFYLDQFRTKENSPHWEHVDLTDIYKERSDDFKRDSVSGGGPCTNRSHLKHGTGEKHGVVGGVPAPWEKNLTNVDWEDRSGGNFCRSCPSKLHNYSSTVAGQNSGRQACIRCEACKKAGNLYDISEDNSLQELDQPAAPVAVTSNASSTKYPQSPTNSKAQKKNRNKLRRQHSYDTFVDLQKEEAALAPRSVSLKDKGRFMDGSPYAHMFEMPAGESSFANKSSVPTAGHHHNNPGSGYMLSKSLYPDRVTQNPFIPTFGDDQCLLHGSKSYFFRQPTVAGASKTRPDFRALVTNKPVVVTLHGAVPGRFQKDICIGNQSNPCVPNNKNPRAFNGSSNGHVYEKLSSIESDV", "assay": "TEVC recording in X. laevis oocytes, GluN2B mutant screening", "format": "cell-based", "details": "GluN1-1a/E236A, individual oocytes"}, "[5]": {"biological_target": "GluN1b wt/ GluN2B F194A (Rattus norvegicus, UniProt P35439+Q00960, F194A)", "assay": "Ligand binding assay with [3H]ifenprodil, membranes of transfected HEK cells", "details": "5 nM radioligand, non-specific binding with 10 µM unlabeled ifenprodil, 37 °C; single replicate", "method": "(§1) One day prior to transfection, human embryonic kidney (HEK) cells were reseeded into T75 flasks, aiming for a confluency of 70% after 24 h. HEK cells were then transiently co-transfected with the cDNAs (GluN1-1a/ eGFP, GluN1-1b/eGFP, GluN2B/pDsRed2-N1, GluN2B F176A/pDsRed2-N1, and GluN2B F194A/pDsRed2-N1) encoding the NMDAR subunits using Lipofectamine 3000 (Thermo Fisher Scientific, Germany) according to the manufacturer’s instructions. Approximately 60 h after transfection, the cells were resuspended in Dulbecco’s phosphate-buffered saline (PBS), and the positively double transfected cells were sorted using fluorescence-activated cell sorting (FACS). The membrane preparation, the protein yield determination, and ligand binding assay were performed as previously described. Briefly, the affinity for NMDAR was evaluated using a receptor binding assay, in which racemic […] (60 Ci/mmol; BIOTREND, Cologne, Germany), served as radioligand. The membrane fragments of NMDAR expressing HEK cells were incubated with 5 nM [^3H]ifenprodil and TRIS/EDTA-buffer (5 mM TRIS/1 mM EDTA, pH 7.5) at 37 °C. To evaluate the unspecific binding, 10 µM unlabeled ifenprodil was used."}, "[6]": {"biological_target": "GluN1a wt/ GluN2B F176A (Rattus norvegicus, UniProt P35439+Q00960, F176A)", "assay": "Ligand binding assay with [3H]ifenprodil, membranes of transfected HEK cells", "details": "5 nM radioligand, non-specific binding with 10 µM unlabeled ifenprodil, 37 °C; single replicate", "method": "as §1"}, "[7]": {"biological_target": "GluN1b wt/ GluN2B wt (Rattus norvegicus, UniProt P35439+Q00960)", "sequence (Q00960 27-1482, other chains not shown)": "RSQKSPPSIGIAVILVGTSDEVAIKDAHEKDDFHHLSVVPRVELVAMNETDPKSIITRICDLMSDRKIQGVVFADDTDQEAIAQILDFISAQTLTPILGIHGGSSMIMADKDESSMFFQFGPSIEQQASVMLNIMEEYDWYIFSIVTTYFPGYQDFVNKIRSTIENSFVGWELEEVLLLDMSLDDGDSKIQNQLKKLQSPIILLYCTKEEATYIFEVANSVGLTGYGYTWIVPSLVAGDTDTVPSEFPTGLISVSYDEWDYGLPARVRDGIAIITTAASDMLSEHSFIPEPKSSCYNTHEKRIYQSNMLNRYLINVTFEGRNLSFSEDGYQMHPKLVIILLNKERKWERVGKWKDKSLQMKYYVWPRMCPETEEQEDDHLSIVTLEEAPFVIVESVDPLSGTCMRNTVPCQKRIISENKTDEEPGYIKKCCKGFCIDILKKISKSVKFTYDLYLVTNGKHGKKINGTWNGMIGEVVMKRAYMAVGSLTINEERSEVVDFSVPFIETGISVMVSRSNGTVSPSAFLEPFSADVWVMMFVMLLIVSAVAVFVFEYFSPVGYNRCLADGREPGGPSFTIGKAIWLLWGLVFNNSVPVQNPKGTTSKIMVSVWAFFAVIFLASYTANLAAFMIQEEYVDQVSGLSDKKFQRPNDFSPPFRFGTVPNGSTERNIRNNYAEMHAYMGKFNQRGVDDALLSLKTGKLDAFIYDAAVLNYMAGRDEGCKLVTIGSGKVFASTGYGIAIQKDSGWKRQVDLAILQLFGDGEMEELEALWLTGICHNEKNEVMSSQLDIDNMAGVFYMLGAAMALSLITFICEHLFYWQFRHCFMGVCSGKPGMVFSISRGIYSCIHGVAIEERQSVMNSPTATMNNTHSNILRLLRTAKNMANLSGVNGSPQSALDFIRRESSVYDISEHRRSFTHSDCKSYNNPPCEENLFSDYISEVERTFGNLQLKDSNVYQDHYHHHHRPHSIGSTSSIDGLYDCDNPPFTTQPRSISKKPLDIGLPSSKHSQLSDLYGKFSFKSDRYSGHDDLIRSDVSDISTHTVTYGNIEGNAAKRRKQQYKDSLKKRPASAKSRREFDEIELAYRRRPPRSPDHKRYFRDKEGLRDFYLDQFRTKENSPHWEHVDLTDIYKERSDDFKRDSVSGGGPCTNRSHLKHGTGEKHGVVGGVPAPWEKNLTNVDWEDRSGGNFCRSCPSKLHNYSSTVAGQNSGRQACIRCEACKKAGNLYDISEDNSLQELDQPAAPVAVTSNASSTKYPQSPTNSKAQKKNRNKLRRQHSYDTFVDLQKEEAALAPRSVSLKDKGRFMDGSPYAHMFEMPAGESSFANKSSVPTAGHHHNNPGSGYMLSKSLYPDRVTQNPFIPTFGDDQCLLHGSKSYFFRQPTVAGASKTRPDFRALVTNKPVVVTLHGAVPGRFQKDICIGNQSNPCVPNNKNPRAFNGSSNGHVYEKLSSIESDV", "assay": "Ligand binding assay with [3H]ifenprodil, membranes of transfected HEK cells", "details": "5 nM radioligand, non-specific binding with 10 µM unlabeled ifenprodil, 37 °C; single replicate", "method": "as §1"}, "[8]": {"biological_target": "GluN1a wt/ GluN2B wt (Rattus norvegicus, UniProt P35439+Q00960)", "sequence (Q00960 27-1482, other chains not shown)": "as above", "assay": "Ligand binding assay with [3H]ifenprodil, membranes of transfected HEK cells", "details": "5 nM radioligand, non-specific binding with 10 µM unlabeled ifenprodil, 37 °C; single replicate", "method": "as §1"}, "[9]": {"biological_target": "GluN1b wt/ GluN2B F176A (Rattus norvegicus, UniProt P35439+Q00960, F176A)", "assay": "Ligand binding assay with [3H]ifenprodil, membranes of transfected HEK cells", "details": "5 nM radioligand, non-specific binding with 10 µM unlabeled ifenprodil, 37 °C; single replicate", "method": "as §1"}, "[10]": {"biological_target": "GluN1a wt/ GluN2B F194A (Rattus norvegicus, UniProt P35439+Q00960, F194A)", "assay": "Ligand binding assay with [3H]ifenprodil, membranes of transfected HEK cells", "details": "5 nM radioligand, non-specific binding with 10 µM unlabeled ifenprodil, 37 °C; single replicate", "method": "as §1"}, "[11]": {"details": "compound concentration 0.1 μM, 0.1 µM"}, "[12]": {"details": "compound concentration 1 μM, 1 µM"}, "[13]": {"details": "compound concentration 10 μM, 10 µM"}, "[14]": {"details": "compound concentration 30 μM, 30 µM"}},
  "note": "“And” between values parts separate entries of the source, which are not always exact repeats. Identical values can stand only once.",
  "data": [
    {"smiles": "Oc1ccc2c(c1)CCN(CCCCc1ccccc1[18F])CC2O", "note": "(racemic) [^18F-OF-NB1]", "values": [
      {"measurement": "blood–brain barrier permeability", "setting": "[1]", "value": "high"},
      {"measurement": "cerebellar accumulation", "setting": "[1]; ex vivo biodistribution assays", "value": "high cerebellar accumulation"}
    ]},
    {"smiles": "Oc1ccc2c(c1)CCN(CCCCc1ccccc1[18F])C[C@@H]2O", "note": "[(R)-^18F-OF-NB1]", "values": [
      {"measurement": "affinity in vivo relative to the S-enantiomer", "setting": "[2]", "value": "four- to five-fold higher"},
      {"measurement": "cingulate cortex accumulation", "setting": "[2]", "value": "high cingulate cortex accumulation"},
      {"measurement": "uptake", "setting": "[2]", "value": "high uptake"},
      {"measurement": "washout kinetics", "setting": "[2]", "value": "slow washout kinetics"}
    ]},
    {"smiles": "Oc1ccc2c(c1)CCN(CCCCc1ccccc1F)C[C@@H]2O", "note": "[OF-NB1 R]", "values": [
      {"measurement": "inhibition (%)", "setting": "[3]; [11]", "value": "0.07918% and 0.5179% and 0.211%"},
      {"measurement": "inhibition (%)", "setting": "[3]; [12]", "value": "29.9386% and 5.971% and 22.998% and 16.9662%"},
      {"measurement": "inhibition (%)", "setting": "[3]; [13]", "value": "58.532% and 61.9095% and 61.1489% and 64.1685%"},
      {"measurement": "inhibition (%)", "setting": "[3]; [14]", "value": "87.8657% and 75.6136% and 78.22% and 87.6368%"},
      {"measurement": "inhibition (%)", "setting": "[4]; compound concentration 0.001 μM, 0.001 µM", "value": "0.5349% and -0.3615% and 0.07864% and -0.02364% and -0.08675%"},
      {"measurement": "inhibition (%)", "setting": "[4]; compound concentration 0.01 μM, 0.01 µM", "value": "2.174% and 5.182% and 1.1167% and -0.03546% and -0.1952%"},
      {"measurement": "inhibition (%)", "setting": "[4]; [11]", "value": "22.83% and 11.3477% and 24.7562% and 0% and 0.08675%"},
      {"measurement": "inhibition (%)", "setting": "[4]; [12]", "value": "62.3641% and 56.7584% and 57.7225% and 68.2307% and 52.0278%"},
      {"measurement": "inhibition (%)", "setting": "[4]; [13]", "value": "74.0293% and 68.3069% and 74.5203% and 84.919% and 71.8716%"},
      {"measurement": "inhibition (%)", "setting": "[4]; [14]", "value": "82.623% and 76.0795% and 83.6584% and 89.363% and 81.8261%"}
    ]},
    {"smiles": "CC(C(O)c1ccc(O)cc1)N1CCC(Cc2ccccc2)CC1", "note": "(stereo not shown) [[^3H]ifenprodil, ifenprodil]", "values": [
      {"measurement": "specific binding (cpm)", "setting": "[5]", "value": "-0.5 cpm and -1.5 cpm"},
      {"measurement": "specific binding (cpm)", "setting": "[6]", "value": "4.5 cpm and 6.5 cpm"},
      {"measurement": "specific binding (cpm)", "setting": "[7]", "value": "4.5 cpm and 5.5 cpm and 11.5 cpm"},
      {"measurement": "specific binding (cpm)", "setting": "[8]", "value": "25.5 cpm and 9.5 cpm and 4.5 cpm"},
      {"measurement": "specific binding (cpm)", "setting": "[9]", "value": "-1.5 cpm and -2.5 cpm and 0.5 cpm"},
      {"measurement": "specific binding (cpm)", "setting": "[10]", "value": "3.5 cpm and 2.5 cpm and -1.5 cpm"}
    ]}
  ]
}
